Literature values as cited in patent publication US20140053594A1, “THERMALLY ACTIVATED PRESSURE BOOSTER FOR HEAT PUMPING AND POWER GENERATION” (priority 2011, published 2014).

Experiments:
[1] = test system: Mouse
[2] = test system: rat
[3] = test system: rat; conditions: intravenous
[4] = test system: rat; conditions: oral
[5] = test system: rat; conditions: intraperitoneal
[6] = test system: RBT; conditions: intraperitoneal, rabbit

Question: What does the source list for C[S+](C)[O-] [DMSO, dimethyl sulfoxide]?
Answer: Acute oral toxicity (LD50) [1]: 7920 mg/kg [Mouse]; Acute dermal toxicity (LD50) [2]: 40000 mg/kg [Rat]

Question: With CN(C)C=O [DMF, dimethylformamide] as the compound, how does the “IVN-RAT LD50” value [3] read?
Answer: The value was 2000 mg/kg.

Question: What about the “ORL-RAT LD50” value [4] of the same compound?
Answer: The value was “ORL-RAT LD50 2800 mg kg^−1”.

Question: What about the “IPR-RAT LD50” value [5] of the same compound?
Answer: Its value is 1400 mg/kg.

Question: What about the “IPR-RBT LD50” value [6] of the same compound?
Answer: The value was “LD50 1000 mg kg^−1”.
